The results in this text go back to patent US20260158009A1 (GENZYME CORPORATION, priority 2023, published 2026).

For assay [1], the target named is T1, hRIPK1 (aa 1-375) fusion protein (Homo sapiens, UniProt Q13546).
T1 construct: hRIPK1 (aa 1-375) fusion protein
T1 sequence (Q13546 1-375): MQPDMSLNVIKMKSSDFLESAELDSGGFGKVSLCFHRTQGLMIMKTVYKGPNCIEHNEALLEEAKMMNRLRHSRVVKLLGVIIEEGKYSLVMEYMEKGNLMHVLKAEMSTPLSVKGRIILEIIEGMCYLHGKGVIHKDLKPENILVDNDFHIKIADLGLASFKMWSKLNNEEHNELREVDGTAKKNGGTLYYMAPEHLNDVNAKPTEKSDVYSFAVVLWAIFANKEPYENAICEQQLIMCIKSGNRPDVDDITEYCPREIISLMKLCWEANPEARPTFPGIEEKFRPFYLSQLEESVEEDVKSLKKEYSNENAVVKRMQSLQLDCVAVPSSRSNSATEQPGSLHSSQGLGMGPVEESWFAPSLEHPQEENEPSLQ
As to the kind of experiment: ADP-Glo kinase assay: catalytic activity of RIPK1 (autophosphorylation, conversion of ATP to ADP). Type of assay: biochemical. Summed up: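 The readout was ADP-Glo luminescence after a 240 min rt autophosphorylation reaction with 50 μM ATP, following 30 min preincubation of 3.6 μg/ml hRIPK1 (aa 1-375) fusion with compound at 33300-1.69 nM final in 1% DMSO. Values came from Levenberg-Marquardt nonlinear fits.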

The test system of the next assay is U937 cells. As to the kind of experiment: Cellular assay in U937 cells: activity of RIPK1 inhibitors on TNFα/zVAD.fmk-induced cell death (necroptosis), CellTiter 96 AQueous (MTS) readout. Type of assay: cell-based. The conditions noted are these: Homo sapiens, U-937. Summed up: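 Necroptosis was measured by viable-cell MTS reduction (4 h, absorbance 490 nm) after overnight (18–24 h) 37° C culture. Cell suspensions of U937 cells carried TNFα (100 ng/ml) plus zVAD.fmk (50 μM) before compound was added. A 10-point curve (10 μM–0.26 nM or 1 μM–0.07 nM) was run in duplicate, normalised to the control lacking TNFα/zVAD.fmk.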

With `Cc1ncc(F)cc1C[C@H]1CC[C@H](C(=O)N2OCC[C@H]2c2ccc(F)cc2)CC1` [compound 179, trans-[4-[(5-fluoro-2-methyl-3-pyridyl)methyl]cyclohexyl]-[(3S)-3-(4-fluorophenyl)isoxazolidin-2-yl]methanone], the figures for the IC50 (in assay [1]; with U937 cells) were 32 nM and 5 nM, respectively.

With `Cc1nc2c(C)cc(C[C@H]3CC[C@H](C(=O)N4OCC[C@H]4c4cnccn4)CC3)cn2n1` [compound 326, trans-[4-[(2,8-dimethyl-[1,2,4]triazolo[1,5-a]pyridin-6-yl)methyl]cyclohexyl]-[(3S)-3-pyrazin-2-ylisoxazolidin-2-yl]methanone], the IC50 (in general, the concentration that gives 50% inhibition) in assay [1] came to 51 nM; with U937 cells it was 59 nM.

Regarding `Cc1nc2c(F)cc(C[C@H]3CC[C@H](C(=O)N4OCC[C@H]4c4cc(F)cc(C#N)c4)CC3)cn2n1` [compound 284, trans-3-fluoro-5-[(3S)-2-[4-[(8-fluoro-2-methyl-[1,2,4]triazolo[1,5-a]pyridin-6-yl)methyl]cyclohexanecarbonyl]isoxazolidin-3-yl]benzonitrile], the IC50 worked out at 17 nM in assay [1] and 34 nM in the assay on U937 cells.

Regarding `Cc1ccc([C@@H]2CCON2C(=O)[C@H]2CC[C@H](Cc3cc(C)c4nnc(C)n4c3)CC2)cn1` [compound 365, trans-[4-(3,8-Dimethyl-[1,2,4]triazolo[4,3-a]pyridin-6-ylmethyl)-cyclohexyl]-[(S)-3-(6-methyl-pyridin-3-yl)-isoxazolidin-2-yl]-methanone], the IC50 in assay [1] is 97 nM; in the assay with U937 cells, 71 nM.

Turning to `N#Cc1cc(F)cc([C@@H]2CCON2C(=O)[C@H]2CC[C@H](Cn3cnc4c(F)cc(C#N)cc43)CC2)c1` [compound 36, trans-1-((4-((S)-3-(3-cyano-5-fluorophenyl)isoxazolidine-2-carbonyl)cyclohexyl)methyl)-4-fluoro-1H-benzo[d]imidazole-6-carbonitrile], the results for the IC50 (in assay [1]; in the assay with U937 cells) were 23 nM and 20 nM, respectively.

Turning to `Cc1nn(C[C@H]2CC[C@H](C(=O)N3OCC[C@H]3c3cc(F)cc(C#N)c3)CC2)c2cc(C(N)=O)cc(F)c12` [compound 102, trans-1-((4-((S)-3-(3-cyano-5-fluorophenyl)isoxazolidine-2-carbonyl)cyclohexyl)methyl)-4-fluoro-3-methyl-1H-indazole-6-carboxamide], the IC50 in assay [1] was found to be 23 nM; in the assay on U937 cells, 37 nM.

As to `O=C([C@H]1CC[C@H](Cn2cnc3ccccc32)CC1)N1OCC[C@H]1c1cncc(F)c1` [compound 9, trans-(4-((1H-benzo[d]imidazol-1-yl)methyl)cyclohexyl)((S)-3-(5-fluoropyridin-3-yl)isoxazolidin-2-yl)methanone], the IC50 in assay [1] was found to be 113 nM; with U937 cells, 174 nM.

Consider `Cc1cc(C[C@H]2CC[C@H](C(=O)N3OCC[C@H]3c3cnccn3)CC2)cn2ncnc12` [compound 250, trans-[4-[(8-methyl-[1,2,4]triazolo[1,5-a]pyridin-6-yl)methyl]cyclohexyl]-[(3S)-3-pyrazin-2-yl-1,2-oxazolidin-2-yl]methanone], for which the IC50 turned out to be 16 nM in assay [1] and 17 nM in the assay on U937 cells.

In the case of `N#Cc1cncc([C@@H]2CCON2C(=O)[C@H]2CC[C@H](Cn3ccc4cc(C(N)=O)ccc43)CC2)c1` [compound 252, trans-1-[[4-[(3S)-3-(5-cyano-3-pyridyl)isoxazolidine-2-carbonyl]cyclohexyl]methyl]indole-5-carboxamide], the IC50 in assay [1] turned out to be 17 nM; with U937 cells, 54 nM.

Take `Cn1cncc1C[C@H]1CC[C@H](C(=O)N2OCC[C@H]2c2cncc(C#N)c2)CC1` [compound 168, trans-5-[(3S)-2-[4-[(3-methylimidazol-4-yl)methyl]cyclohexanecarbonyl]isoxazolidin-3-yl]pyridine-3-carbonitrile]: the figures for the IC50 (in assay [1]; in the assay with U937 cells) were 829 nM and 653 nM, respectively.

`Cc1ccc(CC23CCC(C(=O)N4OCC[C@H]4c4cc(F)cc(C#N)c4)(CC2)CC3)cc1C(N)=O` [compound 274, 5-[[4-[(3S)-3-(3-cyano-5-fluoro-phenyl)isoxazolidine-2-carbonyl]-1-bicyclo[2.2.2]octanyl]methyl]-2-methyl-benzamide]: the IC50 in assay [1] amounted to 9 nM; with U937 cells, 40 nM.

On to `COc1cncc([C@@H]2CCON2C(=O)[C@H]2CC[C@H](Cn3ncc4cc(C#N)ccc43)CC2)n1` [compound 217, trans-1-[[4-[(3S)-3-(6-methoxypyrazin-2-yl)isoxazolidine-2-carbonyl]cyclohexyl]methyl]indazole-5-carbonitrile], for which the IC50 in assay [1] turned out to be 41 nM; in the assay on U937 cells, 12 nM.

With `Cn1ncc2ncc(C[C@H]3CC[C@H](C(=O)N4OCC[C@H]4c4cc(F)cc(F)c4)CC3)cc21` [compound 297, trans-[(3S)-3-(3,5-difluorophenyl)isoxazolidin-2-yl]-[4-[(1-methylpyrazolo[4,3-b]pyridin-6-yl)methyl]cyclohexyl]methanone], the 50% inhibitory concentration (IC50) in assay [1] is 14 nM; with U937 cells, 7 nM.

Turning to `Cc1cc(C)n(C[C@H]2CC[C@H](C(=O)N3OCC[C@H]3c3cc(F)cc(F)c3)CC2)n1` [compound 118, trans-((S)-3-(3,5-difluorophenyl)isoxazolidin-2-yl)(4-((3,5-dimethyl-1H-pyrazol-1-yl)methyl)cyclohexyl)methanone], the IC50 in assay [1] came out at 23 nM; in the assay with U937 cells, 30 nM.

In the case of `Cc1cnc([C@@H]2CCON2C(=O)[C@H]2CC[C@H](Cc3cc(F)c4nc(C)nn4c3)CC2)cn1` [compound 379, trans-[4-[(8-fluoro-2-methyl-[1,2,4]triazolo[1,5-a]pyridin-6-yl)methyl]cyclohexyl]-[(3S)-3-(5-methylpyrazin-2-yl)-1,2-oxazolidin-2-yl]methanone], the IC50 in assay [1] was determined as 50 nM; with U937 cells, 191 nM.

Consider `Cc1ccc([C@@H]2CCON2C(=O)[C@H]2CC[C@H](Cc3cc(C)ncc3C)CC2)cn1` [compound 354, trans-[4-(2,5-Dimethyl-pyridin-4-ylmethyl)-cyclohexyl]-[(S)-3-(6-methyl-pyridin-3-yl)-isoxazolidin-2-yl]-methanone], for which the IC50 in assay [1] is 33 nM; in the assay on U937 cells, 27 nM.

As to `Cc1cn(C[C@H]2CC[C@H](C(=O)N3OCC[C@H]3c3cc(F)cc(C#N)c3)CC2)c2cc(C(N)=O)ccc12` [compound 110, trans-1-((4-((S)-3-(3-cyano-5-fluorophenyl)isoxazolidine-2-carbonyl)cyclohexyl)methyl)-3-methyl-1H-indole-6-carboxamide], the values for the IC50 (in assay [1]; in the assay with U937 cells) were 22 nM and 11 nM, respectively.

For `O=C([C@H]1CC[C@H](Cc2cc(F)cc(CCO)c2)CC1)N1OCC[C@H]1c1cc(F)cc(F)c1` [compound 283, trans-[(3S)-3-(3,5-difluorophenyl)isoxazolidin-2-yl]-[4-[[3-fluoro-5-(2-hydroxyethyl)phenyl]methyl]cyclohexyl]methanone], the IC50 is 16 nM in assay [1] and 13 nM in the assay with U937 cells.

Take `Cn1nccc1C[C@H]1CC[C@H](C(=O)N2OCC[C@H]2c2cc(F)cc(F)c2)CC1` [compound 307, trans-[(3S)-3-(3,5-difluorophenyl)isoxazolidin-2-yl]-[4-[(2-methylpyrazol-3-yl)methyl]cyclohexyl]methanone]: the IC50 in assay [1] worked out at 15 nM; in the assay with U937 cells, 2 nM.

Turning to `Cc1nc([C@@H]2CCON2C(=O)[C@H]2CC[C@H](Cn3cc4ccc(C#N)cc4n3)CC2)cs1` [compound 203, trans-2-[[4-[(3S)-3-(2-methylthiazol-4-yl)isoxazolidine-2-carbonyl]cyclohexyl]methyl]indazole-6-carbonitrile], the IC50 was 125 nM in assay [1] and 432 nM with U937 cells.

`Cc1cc(C[C@H]2CC[C@H](C(=O)N3OCC[C@H]3c3cc(F)cc(C#N)c3)CC2)cn2ncnc12` [compound 249, trans-3-fluoro-5-[(3S)-2-[4-[(8-methyl-[1,2,4]triazolo[1,5-a]pyridin-6-yl)methyl]cyclohexanecarbonyl]-1,2-oxazolidin-3-yl]benzonitrile]: the IC50 in assay [1] came to 18 nM; in the assay on U937 cells it was 5 nM.

For the compound `Cc1cc([C@@H]2CCON2C(=O)[C@H]2CC[C@H](Cn3cnc4c(F)cc(C#N)cc43)CC2)co1` [compound 38, trans-4-fluoro-1-((4-((S)-3-(5-methylfuran-3-yl)isoxazolidine-2-carbonyl)cyclohexyl)methyl)-1H-benzo[d]imidazole-6-carbonitrile], the IC50 is 32 nM in assay [1] and 30 nM with U937 cells.

Regarding `Cc1nn(C[C@H]2CC[C@H](C(=O)N3OCC[C@H]3c3cc(F)cc(C#N)c3)CC2)c2cc(C#N)c(F)cc12` [compound 85, trans-1-((4-((S)-3-(3-cyano-5-fluorophenyl)isoxazolidine-2-carbonyl)cyclohexyl)methyl)-5-fluoro-3-methyl-1H-indazole-6-carbonitrile], the IC50 came out at 21 nM in assay [1] and 3 nM in the assay on U937 cells.
